Data on four molecules can be found in US5661144A, “Cephem derivatives with 3-substituted bis heterocycles” (Meiji Seika Kabushiki Kaisha, priority 1994, dated 1997).

Holding throughout (assay): Antibacterial activity (MIC), conventional two-fold dilution method
What all share (assay type): cell-based

The subject of one assay is S. epidermidis ATCC14990. The conditions noted are these: Staphylococcus epidermidis, 10^6 CFU/ml, Medium N, 35° C., 18 to 20 hours. The method, then:
(§1) The test was carried out in the following manner: 10^6 CFU/ml of a bacterium to be tested was inoculated on a Medium N for disc susceptibility test (manufactured by Nissui Pharmaceutical Co., Ltd.), and cultivated at 35° C. for 18 to 20 hours.

The next assay concerns S. marcescens No.1. The conditions noted are these: Serratia marcescens, 10^6 CFU/ml, Medium N, 35° C., 18 to 20 hours. The method, then: as §1
A further assay has as its system P. vulgaris GN76. The conditions noted are these: Proteus vulgaris, 10^6 CFU/ml, Medium N, 35° C., 18 to 20 hours. As to the method:
as §1

A further assay relates to S. aureus 209P JC-1. The conditions noted are these: Staphylococcus aureus, 10^6 CFU/ml, Medium N, 35° C., 18 to 20 hours. As to the method: as §1
The next assay has as its system P. auruginosa E-2. The conditions noted are these: 10^6 CFU/ml, Medium N, 35° C., 18 to 20 hours. The method, then:
as §1

A further assay deals with E. faecalis W-73. The conditions noted are these: Enterococcus faecalis, W73, 10^6 CFU/ml, Medium N, 35° C., 18 to 20 hours. The method, then: as §1
The next assay deals with K. pneumoniae PC1602. The conditions noted are these: Klebsiella pneumoniae, 10^6 CFU/ml, Medium N, 35° C., 18 to 20 hours. As to the method:
as §1

The next assay concerns C. freundii GN346/16. The conditions noted are these: Citrobacter freundii, 10^6 CFU/ml, Medium N, 35° C., 18 to 20 hours. The method, then:
as §1

The test system of another assay is M. morganii 1510/S-1. The conditions noted are these: Morganella morganii, 1510/S1, 10^6 CFU/ml, Medium N, 35° C., 18 to 20 hours. The method, then:
as §1

In a further assay the test system is E. coli NIHJ JC-2. The conditions noted are these: Escherichia coli, NIHJJC2, 10^6 CFU/ml, Medium N, 35° C., 18 to 20 hours. As to the method: as §1
The next assay concerns R. cloacae G-0008. The conditions noted are these: 10^6 CFU/ml, Medium N, 35° C., 18 to 20 hours. As to the method:
as §1

Structures are written as SMILES. Structures can show the parent of a compound that is named as a salt.

As a reminder, the MIC is the lowest concentration found to suppress growth.

`Nc1nc(C(=NOCF)C(=O)NC2C(=O)N3C(C(=O)[O-])=C(C=CC[n+]4cc5sccn5c4CNC=O)CSC23)ns1` [Example 4, (6R, 7R)-7-[(Z)-2-(5-amino-1,2,4-thiadiazol-3-yl)-2-fluoromethoxyiminoacetamido]-3-[3-(5-formylaminomethylimidazo[5,1-b]thiazolium-6-yl]-1-propenyl]-3-cephem-4-carboxylate (internal salt)]: the minimal inhibitory concentration (MIC) in the assay with S. epidermidis ATCC14990 amounted to 0.2 µg/mL; against S. marcescens No.1 it was 0.05 µg/mL; against P. vulgaris GN76, 0.1 µg/mL; with S. aureus 209P JC-1, 0.39 µg/mL; in the assay on P. auruginosa E-2, 12.5 µg/mL; against E. faecalis W-73 it was 12.5 µg/mL. In addition, the MIC is below 0.025 µg/mL against K. pneumoniae PC1602; below 0.025 µg/mL with C. freundii GN346/16; below 0.025 µg/mL in the assay with M. morganii 1510/S-1; below 0.025 µg/mL in the assay on E. coli NIHJ JC-2; 0.05 µg/mL against R. cloacae G-0008.

For `NC(=O)c1csc2c[n+](CC=CC3=C(C(=O)[O-])N4C(=O)C(NC(=O)C(=NOCF)c5nsc(N)n5)C4SC3)cn12` [Example 3, (6R, 7R)-7-[(Z)-2-(5-amino-1,2,4-thiadiazol-3-yl)-2-fluoromethoxyiminoacetamido]-3-[3-(3-carbamoylimidazo [5,1-b]thiazolium-6-yl)-1-propenyl]-3-cephem-4-carboxylate (internal salt)], the MIC in the assay with S. epidermidis ATCC14990 worked out at 0.2 µg/mL; with S. marcescens No.1 it was 0.05 µg/mL; with P. vulgaris GN76, 0.1 µg/mL; in the assay on S. aureus 209P JC-1, 0.2 µg/mL; against P. auruginosa E-2, 12.5 µg/mL; in the assay on E. faecalis W-73 it was 12.5 µg/mL. For the same molecule, the MIC in the assay with K. pneumoniae PC1602 was 0.05 µg/mL; in the assay with C. freundii GN346/16 it was 0.05 µg/mL; in the assay with M. morganii 1510/S-1, below 0.025 µg/mL; against E. coli NIHJ JC-2, 0.05 µg/mL; in the assay with R. cloacae G-0008 it was 0.05 µg/mL.

Consider `Cc1csc2c[n+](CC=CC3=C(C(=O)[O-])N4C(=O)C(NC(=O)C(=NOCF)c5nsc(N)n5)C4SC3)cn12` [Example 2, (6R, 7R)-7-[(Z)-2-(5-amino-1,2,4-thiadiazol-3-yl)-2-fluoromethoxyiminoacetamido]-3-[3-(3-methylimidazo[5,1-b]thiazolium-6-yl)-1-propenyl]-3-cephem-4-carboxylate (internal salt)], for which the minimum inhibitory concentration (MIC) in the assay on S. epidermidis ATCC14990 was determined as 0.2 µg/mL; in the assay on S. marcescens No.1 it was 0.05 µg/mL; against P. vulgaris GN76, 0.1 µg/mL; in the assay on S. aureus 209P JC-1 it was 0.2 µg/mL; against P. auruginosa E-2, 25 µg/mL; against E. faecalis W-73 it was 12.5 µg/mL. Moreover, the MIC was 0.05 µg/mL against K. pneumoniae PC1602; 0.05 µg/mL against C. freundii GN346/16; below 0.025 µg/mL with M. morganii 1510/S-1; 0.05 µg/mL against E. coli NIHJ JC-2; 0.05 µg/mL in the assay on R. cloacae G-0008.

Turning to `Nc1nc(C(=NOCF)C(=O)NC2C(=O)N3C(C(=O)[O-])=C(C=CC[n+]4cc5sccn5c4)CSC23)ns1` [Example 1, (6R, 7R)-7-[(Z)-2-(5-amino-1,2,4-thiadiazol-3-yl)-2-fluoromethoxyiminoacetamido]-3-[3-(imidazo[5,1-b]-thiazolium-6-yl)-1-propenyl]-3-cephem-4-carboxylate(internal salt)], the MIC in the assay with S. epidermidis ATCC14990 amounted to 0.1 µg/mL; with S. marcescens No.1, 0.05 µg/mL; against P. vulgaris GN76, 0.1 µg/mL; in the assay on S. aureus 209P JC-1, 0.2 µg/mL; in the assay with P. auruginosa E-2, 12.5 µg/mL; against E. faecalis W-73, 12.5 µg/mL. For the same molecule, the MIC in the assay on K. pneumoniae PC1602 is 0.05 µg/mL; in the assay with C. freundii GN346/16, 0.05 µg/mL; in the assay with M. morganii 1510/S-1, below 0.025 µg/mL; against E. coli NIHJ JC-2 it was below 0.025 µg/mL; against R. cloacae G-0008 it was 0.05 µg/mL.
